Drawing on ChEMBL document CHEMBL6177993, “De Novo 3-(Phenylcarbamoyl) Benzoate Analogues: Efficacy against Multidrug-Resistant S. aureus and Elucidation of the Biodistribution Profile” (J Med Chem, 2025), this text covers Activity, MIC and Drug uptake for one compound.

In brackets after ≈: the same amount, converted by molar mass. Activity calls are given as the source filed them. The rule behind the calls is not given here.

The test system of series [1] is Staphylococcus aureus. The series is described as follows: Antibacterial activity against Staphylococcus aureus ATCC 29213 infected in female BALB/c mouse skin infection model assessed as appearance of smooth dorsal skin at 10 times MIC pre-infected with bacteria followed by compound addition and measured after 24 hrs. The class given is functional, organism-based.

Series [2] has as its system Staphylococcus aureus. The series can be described thus: Antibacterial activity against vacomycin-resistant Staphylococcus aureus VRS 1 assessed as reduction in bacterial growth measured after 18 to 24 hrs by broth microdilution method. It is filed as functional. Conditions: time 18-24 hrs. On the technique in general: In broth dilution the organism is exposed to a series of concentrations in liquid medium.

The subject of another series is Pseudomonas aeruginosa. The series can be described thus: Antibacterial activity against Pseudomonas aeruginosa ATCC 27853 assessed as reduction in bacterial growth measured after 18 to 24 hrs by broth microdilution method. The class given is functional. The conditions noted are these: time 18-24 hrs.
In series [3] the test system is Staphylococcus aureus. The series can be described thus: Antibacterial activity against Staphylococcus aureus ATCC 29213 infected in female BALB/c mouse skin infection model assessed as reduction in skin lesions at 10 times MIC pre-infected with bacteria followed by compound addition and measured after 24 hrs. It is filed as functional, organism-based.
Series [4] can be described thus: Toxicity in female BALB/c mouse assessed as effect on spleen measured after 24 hrs by H and E staining based analysis. The class given is tissue-based. Conditions: in vivo.
Series [5] concerns Staphylococcus aureus. The series can be described thus: Bactericidal activity against Staphylococcus aureus ATCC 29213 at 4 to 8 time MIC measured within 60 mins by time-kill assay. The class given is functional, organism-based.
Series [6] relates to Staphylococcus aureus. The series can be described thus: Antibacterial activity against Staphylococcus aureus ATCC 29213 infected in female BALB/c mouse skin infection model assessed as reduction of abscess in subcutaneous tissue at 10 times MIC pre-infected with bacteria followed by compound addition and measured after 24 hrs. The class given is functional, organism-based.

Series [7] deals with Staphylococcus aureus. The series can be described thus: Antibacterial activity against methicillin-resistant Staphylococcus aureus NRS 119 assessed as reduction in bacterial growth measured after 18 to 24 hrs by broth microdilution method. It is filed as functional. The conditions noted are these: time 18-24 hrs.
For series [8], the system named is Staphylococcus aureus. The series can be described thus: Antibacterial activity against methicillin-sensitive Staphylococcus aureus ATCC 29213 assessed as reduction in bacterial growth measured after 18 to 24 hrs by broth microdilution method. It is filed as functional. The conditions noted are these: time 18-24 hrs.
The test system of series [9] is Staphylococcus aureus. The series can be described thus: Antibacterial activity against methicillin-resistant Staphylococcus aureus NRS 186 assessed as reduction in bacterial growth measured after 18 to 24 hrs by broth microdilution method. It is filed as functional. Conditions: time 18-24 hrs.
Series [10] can be described thus: Drug distribution in female BALB/c mouse skin measured after 24 hrs. The class given is ADME, tissue-based, Skin of body. The conditions noted are these: in vivo.
The test system of series [11] is Staphylococcus aureus. The series can be described thus: Antibiofilm activity in Staphylococcus aureus ATCC 29213 assessed as disruption of preformed biofilm at 40 times MIC measured after 24 hrs by crystal violet staining based assay relative to control. It is filed as functional.

Turning to `O=C(O)c1cccc(C(=O)Nc2c(C(c3ccc(F)cc3)c3ccc(F)cc3)cc(Cl)cc2C(c2ccc(F)cc2)c2ccc(F)cc2)c1`, the outcome in the series on Staphylococcus aureus [1], in the series with Staphylococcus aureus [3], in the series with Staphylococcus aureus [5] and with Staphylococcus aureus [6] was Active. In addition, the MIC (commonly the lowest concentration that inhibits growth of the organism) in the series on Staphylococcus aureus [2] is 2 µg/mL (≈ 2.94 µM); with Pseudomonas aeruginosa, more than 64 µg/mL; in the series on Staphylococcus aureus [7], 2 µg/mL (≈ 2.94 µM); in the series with Staphylococcus aureus [8], 2 µg/mL (≈ 2.94 µM); in the series on Staphylococcus aureus [9], 2 µg/mL (≈ 2.94 µM). The Activity entry in series [4] is on record as “Non-toxic”; in the series on Staphylococcus aureus [11], 31.47%. In series [10], this compound registered a Drug uptake of 5.93 nmol/mg.
